Data: patent US7041698B2, “Hepatitis C virus inhibitors” (Bristol-Myers Squibb Company, priority 2002, dated 2006)
pIC50: −log10 of the molar value.

Tests used:
human liver cathepsin B = molecular target: T1, human liver cathepsin B (Homo sapiens, UniProt P07858); test: Specificity assay, cathepsin B; assay type: biochemical; conditions: 2 hr pre-incubation at RT
T1 construct: purchased Sigma
Method: (§1) The specificities of compounds of the present invention were determined against a variety of serine proteases: human sputum elastase (HS), porcine pancreatic elastase (PPE) and human pancreatic chymotrypsin and one cysteine protease: human liver cathepsin B. In all cases a 96-well plate format protocol using calorimetric p-nitroaniline (pNA) substrate specific for each enzyme was used as described previously (Patent WO 00/09543) with some modifications to the serine protease assays. All enzymes were purchased from Sigma while the substrates were from Bachem.
(§2) Each assay included a 2 hr enzyme-inhibitor pre-incubation at RT followed by addition of substrate and hydrolysis to ˜30% conversion as measured on a Spectramax Pro microplate reader. Compound concentrations varied from 100 to 0.4 μM depending on their potency. […]
(§3) The percentage of inhibition was calculated using the formula: [1-((UVinh−UVblank)/(UVctl−UVblank))]×100 […]

[1] = molecular target: T2, human sputum elastase (HS) (Homo sapiens, UniProt P08246); test: Specificity assay, human sputum elastase; assay type: biochemical; conditions: 2 hr pre-incubation at RT
T2 construct: purchased Sigma
T2 sequence (P08246 30-267): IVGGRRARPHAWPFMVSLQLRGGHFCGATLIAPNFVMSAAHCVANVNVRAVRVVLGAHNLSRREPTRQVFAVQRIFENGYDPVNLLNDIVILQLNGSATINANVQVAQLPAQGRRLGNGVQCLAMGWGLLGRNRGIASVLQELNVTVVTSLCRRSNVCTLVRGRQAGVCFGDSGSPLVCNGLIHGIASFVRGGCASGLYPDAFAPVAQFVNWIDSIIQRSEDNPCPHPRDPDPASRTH
Method: as §1, §2, §3

Compound: C=CC1C[C@]1(NC(=O)[C@@H]1C[C@@H](OC(=O)Nc2ccccc2-c2ccccc2)CN1C(=O)[C@@H](NC(=O)OC(C)(C)C)C(C)(C)C)C(=O)NS(=O)(=O)C1CC1 (stereo partly drawn) [Compound 8, BocNH-P3(t-BuGly)-P2(Hyp(O—CO(NH-biphen-2-yl)))-P1(1R,2S VinylAcca)—CONHSO2Cyclopropane]
- pIC50 (human liver cathepsin B): < 4.00
- pIC50 [1]: < 4.00
